Results reported in US11319279B2, “Antimicrobial compound and use thereof” (priority 2014, dated 2022).
Values after ≈ are worked out from the molar mass of the structure shown. Read-outs that look alike come from different tables or passages of the source.

Tests used:
E. coli KTCT 1682 = test: MIC by broth microdilution; assay type: cell-based; conditions: Escherichia coli, KCTC1682; E. coli KTCT 1682 (KCTC 1682 in Table 4); MHB, 20 hours
MRSA CCARM 3167 = test: MIC by broth microdilution; assay type: cell-based, methicillin-resistant Staphylococcus aureus; conditions: for MIC: Staphylococcus aureus, MRSA CCARM 3167, MHB, 20 hours
[1] = tested on: Klebsiella pneumoniae KCTC 22057; test: MIC by broth microdilution; assay type: cell-based; conditions: KCTC22057, MHB, 20 hours
E. coli CCARM 1356 = test: MIC by broth microdilution; assay type: cell-based, Escherichia coli; conditions: for MIC: Escherichia coli, CCARM1356, E. coli CCARM 1356, MHB, 20 hours
[2] = tested on: Pseudomonas aeruginosa KTCT 2004; test: MIC by broth microdilution; conditions: KCTC2004, 20 h
Protocol: (§1) A test microorganism was cultured in Mueller Hinton broth (MHB) and the antimicrobial activity was measured by the broth microdilution method. […] The compound was diluted in dimethylsulfoxide (DMSO) and the experiment was performed by adjusting the DMSO concentration to a 1/100 level. After culturing for 20 hours, the OD value was measured at 650 nm and the growth of the microorganism was examined.

[3] = tested on: Enterococcus faecalis KTCT 5191; test: MIC by broth microdilution; conditions: for MIC: Enterococcus faecalis, KCTC5191, 20 h
Protocol: as §1

[4] = tested on: Streptococcus pneumoniae KTCT 5412; test: MIC by broth microdilution; conditions: KCTC5412, 20 h
Protocol: as §1

[5] = tested on: Acinetobacter baumannii KCTC 2508; test: MIC by broth microdilution; assay type: cell-based; conditions: KCTC2508, MHB, 20 hours
[6] = tested on: Staphylococcus aureus RN 4220; test: MIC by broth microdilution; assay type: cell-based; conditions: RN4220, 20 h
[7] = tested on: Enterococcus faecalis KTCT 3511; test: MIC by broth microdilution; assay type: cell-based
[8] = tested on: Bacillus subtilis KTCT 1661; test: MIC by broth microdilution; assay type: cell-based
[9] = tested on: Acinetobacter calcoaceticus KTCT 2357; test: MIC by broth microdilution; assay type: cell-based
[10] = tested on: Salmonella typhimurium KTCT 1926; test: MIC by broth microdilution; assay type: cell-based; conditions: Salmonella enterica, MHB, 20 hours
QRSA CCARM 3505 = test: MIC by broth microdilution; assay type: cell-based, quinolone-resistant Staphylococcus aureus; conditions: Staphylococcus aureus, CCARM3505, MHB, 20 hours
[11] = tested on: Staphylococcus aureus 209; test: MIC by broth microdilution; assay type: cell-based; conditions: MHB, 20 hours
[12] = tested on: Klebsiella aerogenes KTCT 2619; test: MIC by broth microdilution; assay type: cell-based; conditions: KTCT2619, MHB, 20 hours
VRE = test: Antimicrobial activity against VRE; assay type: cell-based, vancomycin resistant enterococcus; conditions: statement in words, refers to Example 5
[13] = tested on: Staphylococcus aureus 503; test: MIC by broth microdilution; assay type: cell-based; conditions: MHB, 20 hours
MRSA CCARM 3506 = test: MIC by broth microdilution; assay type: cell-based, methicillin-resistant Staphylococcus aureus; conditions: Staphylococcus aureus, MHB, 20 hours
[14] = tested on: Pseudomonas aeruginosa KTCT 2742; test: MIC by broth microdilution; assay type: cell-based
[15] = tested on: Klebsiella aerogenes and Pseudomonas aeruginosa; test: MIC by broth microdilution, summary over Klebsiella and Pseudomonas strains; assay type: cell-based; conditions: range over strains of Table 2
VISA = test: Antimicrobial activity against VISA; assay type: cell-based, vancomycin intermediate-resistant S. aureus; conditions: statement in words, refers to Example 5
S. aureus = test: MIC by broth microdilution, summary over S. aureus strains; assay type: cell-based; conditions: Staphylococcus aureus; range over S. aureus strains of Table 2
[16] = tested on: Staphylococcus epidermidis KTCT 3958; test: MIC by broth microdilution; assay type: cell-based
[17] = tested on: MRSA (CCARM3167, CCARM3506) and QRSA (CCARM 3505, CCARM 3519); test: MIC by broth microdilution, summary over MRSA and QRSA strains; assay type: cell-based; conditions: Staphylococcus aureus; range over MRSA CCARM3167, CCARM3506 and QRSA CCARM 3505, CCARM 3519; read-out: MICs in MRSA and QRSA
[18] = tested on: Bacillus subtilis KCTC 1021; test: MIC by broth microdilution; assay type: cell-based; conditions: KCTC1021, MHB, 20 hours
QRSA CCARM 3519 = test: MIC by broth microdilution; assay type: cell-based, quinolone-resistant Staphylococcus aureus; conditions: Staphylococcus aureus, CCARM3519, MHB, 20 hours
Escherichia coli = test: MIC by broth microdilution, summary over E. coli strains; assay type: cell-based; conditions: range over E. coli strains of Table 2

SMILES	MIC (E. coli KTCT 1682)	MIC (MRSA CCARM 3167)	MIC [1]	MIC (E. coli CCARM 1356)	MIC [2]	MIC [3]	MIC [4]	MIC [5]	MIC [6]	also measured
O=C(O)c1cn(C2CC2)c2cc(N3CCNCC3)c(F)cc2c1=O [Ciprofloxacin, reference compound]	0.003 µg/mL (≈ 0.00905 µM)	2 µg/mL (≈ 6.04 µM)	0.006 µg/mL (≈ 0.0181 µM)	64 µg/mL (≈ 193 µM)	0.06 µg/mL (≈ 0.181 µM)	0.5 µg/mL (≈ 1.51 µM)	0.5 µg/mL (≈ 1.51 µM)			
COC(C(N)=O)C(NC(=O)c1ccc(NC(=O)c2ccc([N+](=O)[O-])cc2)cc1)C(=O)Nc1ccc(C(=O)Nc2ccc(C(=O)Nc3ccc(C(=O)O)c(O)c3OC(C)C)c(O)c2OC(C)C)cc1 (stereo not shown) [Coralmycin B]	0.125 µg/mL (≈ 0.134 µM)	0.015 µg/mL (≈ 0.016 µM)	2 µg/mL (≈ 2.14 µM)	0.125 µg/mL (≈ 0.134 µM)	4 µg/mL (≈ 4.27 µM)	0.03 µg/mL (≈ 0.0321 µM)	0.25 µg/mL (≈ 0.267 µM)	0.125 µg/mL (≈ 0.134 µM)	0.015 µg/mL (≈ 0.016 µM)	higher antimicrobial activity compared to ciprofloxacin (MRSA CCARM 3167; in MRSA): at least 133 fold; higher antimicrobial activity compared to ciprofloxacin (E. coli CCARM 1356; in Escherichia coli): at least 426 fold; higher antimicrobial activity compared to ciprofloxacin ([3]; in Enterococcus faecalis): at least 16 fold
COC(C(N)=O)C(NC(=O)c1ccc(NC(=O)c2ccc([N+](=O)[O-])cc2)cc1)C(=O)Nc1ccc(C(=O)Nc2ccc(C(=O)Nc3ccc(C(=O)O)cc3OC(C)C)c(O)c2OC(C)C)cc1 (stereo not shown) [Coralmycin A]	0.5 µg/mL (≈ 0.544 µM)	0.125 µg/mL (≈ 0.136 µM)	8 µg/mL (≈ 8.7 µM)	1 µg/mL (≈ 1.09 µM)	8 µg/mL (≈ 8.7 µM)	0.125 µg/mL (≈ 0.136 µM)	2 µg/mL (≈ 2.17 µM)	0.25 µg/mL (≈ 0.272 µM)	0.063 µg/mL (≈ 0.0685 µM)	MIC ([7]; KTCT3511, Enterococcus faecalis KTCT 3511, MHB, 20 hours, read-out: MIC): 0.125 µg/mL (≈ 0.136 µM); MIC ([8]; KTCT1661, Bacillus subtilis KTCT 1661, MHB, 20 hours, read-out: MIC): 0.125 µg/mL (≈ 0.136 µM); MIC ([9]; KTCT2357, Acinetobacter calcoaceticus KTCT 2357, MHB, 20 hours, read-out: MIC): 0.25 µg/mL (≈ 0.272 µM); MIC [10]: 0.063 µg/mL (≈ 0.0685 µM); MIC (QRSA CCARM 3505): 1 µg/mL (≈ 1.09 µM); MIC [11]: 0.125 µg/mL (≈ 0.136 µM); MIC [12]: 8 µg/mL (≈ 8.7 µM); antimicrobial activity against VRE (VRE): confirmed; MIC [13]: 1 µg/mL (≈ 1.09 µM); MIC (MRSA CCARM 3506): 0.25 µg/mL (≈ 0.272 µM); MIC ([14]; KTCT2742, Pseudomonas aeruginosa KTCT 2742, MHB, 20 hours, read-out: MIC): 32 µg/mL (≈ 34.8 µM); MIC [15]: 8 to 32 µg/mL (≈ 8.7 to 34.8 µM); antimicrobial activity against VISA (VISA): confirmed; MIC (S. aureus): 0.06 to 1 µg/mL (≈ 0.0652 to 1.09 µM); MIC ([16]; KTCT3958, Staphylococcus epidermidis KTCT 3958, MHB, 20 hours, read-out: MIC): 0.125 µg/mL (≈ 0.136 µM); MIC [17]: 0.1 to 1 µg/mL (≈ 0.109 to 1.09 µM); MIC [18]: 0.063 µg/mL (≈ 0.0685 µM); MIC (QRSA CCARM 3519): 1 µg/mL (≈ 1.09 µM); MIC (Escherichia coli): 0.5 to 1 µg/mL (≈ 0.544 to 1.09 µM)
Oc1cc(Cl)ccc1Oc1ccc(Cl)cc1Cl [Triclosan, reference compound]					> 64 µg/mL	> 64 µg/mL	64 µg/mL (≈ 221 µM)			MIC ([7]; Enterococcus faecalis, KTCT3511, 20 h): > 64 µg/mL; MIC ([8]; Bacillus subtilis, KTCT1661, 20 h): 2 µg/mL (≈ 6.91 µM); MIC ([9]; Acinetobacter calcoaceticus, KTCT2357, 20 h): > 0.5 µg/mL; MIC ([14]; Pseudomonas aeruginosa, KTCT2742, 20 h): > 64 µg/mL; MIC ([16]; Staphylococcus epidermidis, KTCT3958, 20 h): 0.25 µg/mL (≈ 0.863 µM)
